How the values were obtained:
[1] = molecular target: Beta-lactamase (Escherichia coli K-12) (UniProt P00811); assay: Inhibition of beta-lactamase at 100 uM
[2] = molecular target: T1, Chymotrypsin-C (Homo sapiens) (UniProt Q99895); assay: Inhibition of chymotrypsin at 250 uM; details: unidentified
T1 sequence (whole entry): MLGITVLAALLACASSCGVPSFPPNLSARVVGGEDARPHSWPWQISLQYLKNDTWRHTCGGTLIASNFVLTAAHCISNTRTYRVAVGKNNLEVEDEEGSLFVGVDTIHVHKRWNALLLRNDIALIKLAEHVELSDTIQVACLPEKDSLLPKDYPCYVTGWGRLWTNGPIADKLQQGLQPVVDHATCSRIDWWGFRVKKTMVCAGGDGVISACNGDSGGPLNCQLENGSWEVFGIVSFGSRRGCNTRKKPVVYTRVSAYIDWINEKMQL

[3] = molecular target: T2, Malate dehydrogenase, cytoplasmic (Homo sapiens) (UniProt P40925); assay: Inhibition of malate dehydrogenase (MDH) at 400 uM
T2 sequence (whole entry): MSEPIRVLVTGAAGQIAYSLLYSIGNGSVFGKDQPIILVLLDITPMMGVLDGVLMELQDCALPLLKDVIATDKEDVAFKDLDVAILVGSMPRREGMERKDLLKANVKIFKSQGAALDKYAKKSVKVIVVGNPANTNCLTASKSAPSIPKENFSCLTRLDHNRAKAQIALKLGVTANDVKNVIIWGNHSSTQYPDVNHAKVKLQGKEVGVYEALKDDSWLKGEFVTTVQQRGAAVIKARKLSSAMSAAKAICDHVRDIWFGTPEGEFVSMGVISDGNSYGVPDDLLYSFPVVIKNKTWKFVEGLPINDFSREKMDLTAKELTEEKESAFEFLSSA

Chymotrypsinogen A [4] = molecular target: T3, Chymotrypsinogen A (Bos taurus, UniProt P00766); assay: Compound was tested for the inhibition of Chymotrypsinogen
Beta-lactamase [5] = molecular target: T4, Beta-lactamase (Escherichia coli K-12, UniProt P00811); assay: Compound was tested for the inhibition of beta-lactamase
T4 sequence (P00811 whole entry): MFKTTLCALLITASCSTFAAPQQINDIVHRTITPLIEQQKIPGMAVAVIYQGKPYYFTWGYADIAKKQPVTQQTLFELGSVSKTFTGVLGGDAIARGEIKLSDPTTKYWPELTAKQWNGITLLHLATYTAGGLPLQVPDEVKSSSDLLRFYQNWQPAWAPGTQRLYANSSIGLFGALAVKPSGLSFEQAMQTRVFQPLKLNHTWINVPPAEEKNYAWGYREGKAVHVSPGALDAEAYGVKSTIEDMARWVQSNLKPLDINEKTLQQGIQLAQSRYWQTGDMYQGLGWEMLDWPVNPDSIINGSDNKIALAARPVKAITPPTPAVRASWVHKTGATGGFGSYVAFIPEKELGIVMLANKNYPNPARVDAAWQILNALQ

[6] = molecular target: Chymotrypsinogen A (Bos taurus) (UniProt P00766); assay: Compound was tested for the inhibition of Chymotrypsinogen at 400 uM
[7] = Mean maximal plasma concentration; format: ADME, organism-based
[8] = molecular target: T5, Malate dehydrogenase, mitochondrial (Sus scrofa, UniProt P00346); assay: Fold increase in IC50 vs malate dehydrogenase (MDH) with 1 mg/ml saponin; increase
T5 sequence (P00346 whole entry): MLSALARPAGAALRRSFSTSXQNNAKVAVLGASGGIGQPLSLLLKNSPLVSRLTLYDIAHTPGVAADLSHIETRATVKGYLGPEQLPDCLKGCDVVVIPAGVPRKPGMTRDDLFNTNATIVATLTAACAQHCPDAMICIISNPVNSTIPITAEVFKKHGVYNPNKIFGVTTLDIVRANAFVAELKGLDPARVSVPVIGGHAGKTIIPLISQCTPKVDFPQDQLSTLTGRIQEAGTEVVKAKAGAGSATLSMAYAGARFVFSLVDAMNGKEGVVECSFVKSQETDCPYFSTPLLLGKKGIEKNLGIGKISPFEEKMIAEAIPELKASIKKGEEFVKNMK

[9] = molecular target: T6, Malate dehydrogenase, mitochondrial (Sus scrofa) (UniProt P00346); assay: Compound was tested for the inhibition of malate dehydrogenase (MDH) at 200 uM
T6 sequence (whole entry): T5 sequence (P00346 whole entry)

Beta-lactamase [10] = molecular target: T4, Beta-lactamase; assay: Effect of pre-incubation with enzyme on the inhibition of beta-lactamase:No inhibition
Beta-lactamase [11] = molecular target: T4, Beta-lactamase; assay: Effect of increase in enzyme concentration by 10 times on the inhibition of beta-lactamase by the compound:No inhibition
Beta-lactamase [12] = molecular target: T4, Beta-lactamase; assay: Compound was tested for the inhibition beta-lactamase with 0.1 mg/ml saponin:No inhibition
[13] = molecular target: T5, Malate dehydrogenase, mitochondrial; assay: Fold decrease in IC50 vs malate dehydrogenase (MDH) on pre-incubation; no change
[14] = molecular target: T6, Malate dehydrogenase, mitochondrial (Sus scrofa); assay: Compound was tested for the inhibition of malate dehydrogenase (MDH) at 100 uM
[15] = molecular target: T6, Malate dehydrogenase, mitochondrial (Sus scrofa); assay: Compound was tested for the inhibition of malate dehydrogenase (MDH) at 50 uM
[16] = molecular target: Chymotrypsinogen A (Bos taurus) (UniProt P00766); assay: Compound was tested for the inhibition of Chymotrypsinogen at 250 uM (Inhibition is time dependent)
Chymotrypsinogen A [17] = molecular target: T3, Chymotrypsinogen A; assay: Fold decrease in IC50 vs chymotrypsinogen on pre-incubation; increase

Beta-lactamase (Escherichia coli K-12), sequence (P00811 whole entry): as the sequence (P00811 whole entry) above

| Structure (SMILES) | inhibition [1] | inhibition [2] | inhibition [3] | also measured |
| --- | --- | --- | --- | --- |
| Cc1oncc1C(=O)Nc1ccc(C(F)(F)F)cc1 | < 5% | < 5% | 12% |  |
| Clc1ccc(COC(Cn2ccnc2)c2ccc(Cl)cc2Cl)cc1 (stereo not drawn) [ECONAZOLE] |  |  |  | IC50 (Chymotrypsinogen A [4]): 150 µM; IC50 (Beta-lactamase [5]): 25 µM |
| Cc1cccc(Nc2ccccc2C(=O)O)c1C [MEFENAMIC ACID] |  |  |  | inhibition [6]: 41%; IC50 (Beta-lactamase [5]): 350 µM; Cmax [7]: 83 µM; IC50 [8]: increase |
| Nc1nnc(-c2cccc(Cl)c2Cl)c(N)n1 | < 5% | < 5% | 11% |  |
| Nc1ccc(S(=O)(=O)c2ccc(N)cc2)cc1 | < 5% | < 5% | 11% |  |
| NS(=O)(=O)c1cc(C2(O)NC(=O)c3ccccc32)ccc1Cl (stereo not drawn) | < 5% | < 5% |  | inhibition [9]: < 5% |
| NC(=O)N1c2ccccc2C=Cc2ccccc21 | < 5% | < 5% | 8% |  |
| CC(=O)N1CCN(c2ccc(OCC3COC(Cn4ccnc4)(c4ccc(Cl)cc4Cl)O3)cc2)CC1 (stereo not drawn) [KETOCONAZOLE] |  |  |  | IC50 (Beta-lactamase [10]): Not Active; IC50 (Chymotrypsinogen A [4]): > 150 µM; IC50 (Beta-lactamase [11]): Not Active; IC50 (Beta-lactamase [12]): Not Active; IC50 (Beta-lactamase [5]): > 150 µM |
| CCc1cccc2c3c([nH]c12)C(CC)(CC(=O)O)OCC3 (stereo not drawn) | < 5% | < 5% | 9% |  |
| CC(C)Nc1cccnc1N1CCN(C(=O)c2cc3cc(NS(C)(=O)=O)ccc3[nH]2)CC1 [DELAVIRDINE] |  |  |  | IC50 (Chymotrypsinogen A [4]): 225 µM; IC50 (Beta-lactamase [5]): 90 µM |
| COC(=O)C1=C(C)NC(C)=C(C(=O)OCCN(C)Cc2ccccc2)C1c1cccc([N+](=O)[O-])c1 (stereo not drawn) [NICARDIPINE] |  |  |  | IC50 (Chymotrypsinogen A [4]): 175 µM; IC50 [13]: Not Active; Cmax [7]: 0.184 µM |
| CC(C)C(=O)Nc1ccc([N+](=O)[O-])c(C(F)(F)F)c1 | < 5% | < 5% |  | inhibition [14]: < 5% |
| NS(=O)(=O)c1cc(C(=O)O)c(NCc2ccco2)cc1Cl | < 5% | < 5% | 21% |  |
| O=C(O)CCCc1ccc(N(CCCl)CCCl)cc1 | < 5% | 23% | 44% |  |
| COc1ccc2c(c1)c(CC(=O)O)c(C)n2C(=O)c1ccc(Cl)cc1 | < 5% | < 5% | 7% |  |
| O=C(O)CCCCCCCC(=O)O | < 5% | < 5% | 8% |  |
| Nc1cc(-c2ccncc2)c[nH]c1=O | < 5% | < 5% |  | inhibition [15]: < 5% |
| COc1ccc2[nH]c([S+]([O-])Cc3ncc(C)c(OC)c3C)nc2c1 (stereo not drawn) | < 5% | < 5% | < 5% |  |
| Cc1nccn1CC1CCc2c(c3ccccc3n2C)C1=O (stereo not drawn) | < 5% | < 5% | < 5% |  |
| CC(C)[N+](C)(CCOC(=O)C1c2ccccc2Oc2ccccc21)C(C)C | < 5% |  | < 5% | inhibition [16]: 96% |
| COc1ccc(Cl)cc1C(=O)NCCc1ccc(S(=O)(=O)NC(=O)NC2CCCCC2)cc1 [GLYBURIDE] |  |  |  | IC50 (Chymotrypsinogen A [4]): 360 µM; IC50 (Beta-lactamase [5]): 300 µM; Cmax [7]: 0.215 µM |
| CNCCCC1c2ccccc2C=Cc2ccccc21 | < 5% | < 5% | < 5% |  |
| COc1cc(Cc2cnc(N)nc2N)cc(OC)c1OC | < 5% | < 5% | < 5% |  |
| O=C(O)CCc1nc(-c2ccccc2)c(-c2ccccc2)o1 [OXAPROZIN] |  |  |  | IC50 (Chymotrypsinogen A [4]): 200 µM; IC50 (Chymotrypsinogen A [17]): Increase; IC50 (Beta-lactamase [5]): > 400 µM; Cmax [7]: 372 µM |
| CN(C)CCN(Cc1ccccc1)c1ccccn1 | < 5% | < 5% | < 5% |  |
| Cc1c(OCC(F)(F)F)ccnc1C[S+]([O-])c1nc2ccccc2[nH]1 (stereo not drawn) | < 5% | < 5% | < 5% |  |
| O=C1CCC(N2C(=O)c3ccccc3C2=O)C(=O)N1 (stereo not drawn) | < 5% | < 5% | < 5% |  |
